Experimental data from patent US20140357713A1, “ANTIMICROBIAL COMPOUNDS AND METHODS OF USE” (NexMed Holdings, Inc., priority 2012, published 2014).
Where a name gives a salt, the structure may show the parent alone. Read-outs that look alike come from different tables or passages of the source.

Experiments:
Test in all cases: MIC assay with different strains, Example 35
Format in all cases: cell-based
[1] = system: Acinetobacter iwoffi (ATCC 15309)
Procedure: (§1) The minimum inhibitory concentration (MIC) is used to determine the lowest concentration of a test product claiming antimicrobial effects that will inhibit growth of a microorganism. Each microbial suspension was adjusted approximately 10^7 to 10^8 colony forming units (CFU) per mL and labeled as the stock suspension. The stock suspension was further diluted to 1:200 in Mueller Hinton broth to obtain a test sample having a concentration of […]. The test sample was then tested for MIC as described in M202.R02. After incubation, each tube was examined for turbidity, which indicated growth or no growth. For the tubes where the product rendered the media turbid, an aliquot of the media was streaked onto agar plates to confirm growth or lack of growth.

[2] = system: Corynebacterium jeikeium (ATCC 43734)
Procedure: as §1

[3] = system: Enterobacter aerogenes (ATCC 13048)
Procedure: as §1

[4] = system: Micrococcus luteus (ATCC 4698)
Procedure: as §1

[5] = system: Pseudomonas aeruginosa (ATCC 9027)
Procedure: as §1

[6] = system: Serratia marcescens (ATCC 14756)
Procedure: as §1

[7] = system: Staphylococcus aureus (MRSA) (ATCC 33592)
Procedure: as §1

[8] = system: Staphylococcus hominis (ATCC 27844)
Procedure: as §1

[9] = system: Enterococcus faecium (ATCC 19434)
Procedure: as §1

Structure (SMILES): CCCCCCCCCCCCOC(=O)C(C)N(C)C (centres unmarked) [Nex-05, Dodecyl 2-(dimethylamino)propanoate hydrochloride]
- MIC ([1]; Example 35): 0.156%
- Growth/no growth ([1]; Sample Concentration 0.039%): Growth
- Growth/no growth ([1]; Sample Concentration 0.078%): Growth
- MIC ([2]; Example 35): 0.625%
- Growth/no growth ([2]; Sample Concentration 0.039%): Growth
- Growth/no growth ([2]; Sample Concentration 0.078%): Growth
- Growth/no growth ([2]; Sample Concentration 0.156%): Growth
- Growth/no growth ([2]; Sample Concentration 0.313%): Growth
- MIC ([3]; Example 35): 1.25%
- Growth/no growth ([3]; Sample Concentration 0.039%): Growth
- Growth/no growth ([3]; Sample Concentration 0.078%): Growth
- Growth/no growth ([3]; Sample Concentration 0.156%): Growth
- Growth/no growth ([3]; Sample Concentration 0.313%): Growth
- Growth/no growth ([3]; Sample Concentration 0.625%): Growth
- MIC ([4]; Example 35): 0.313%
- Growth/no growth ([4]; Sample Concentration 0.039%): Growth
- Growth/no growth ([4]; Sample Concentration 0.078%): Growth
- Growth/no growth ([4]; Sample Concentration 0.156%): Growth
- MIC ([5]; Example 35): 1.25%
- Growth/no growth ([5]; Sample Concentration 0.039%): Growth
- Growth/no growth ([5]; Sample Concentration 0.078%): Growth
- Growth/no growth ([5]; Sample Concentration 0.156%): Growth
- Growth/no growth ([5]; Sample Concentration 0.313%): Growth
- MIC ([6]; Example 35): 2.5%
- Growth/no growth ([6]; Sample Concentration 0.039%): Growth
- Growth/no growth ([6]; Sample Concentration 0.078%): Growth
- Growth/no growth ([6]; Sample Concentration 0.156%): Growth
- Growth/no growth ([6]; Sample Concentration 0.313%): Growth
- Growth/no growth ([6]; Sample Concentration 0.625%): Growth
- Growth/no growth ([6]; Sample Concentration 1.25%): Growth
- MIC ([7]; Example 35): 0.625%
- Growth/no growth ([7]; Sample Concentration 0.039%): Growth
- Growth/no growth ([7]; Sample Concentration 0.078%): Growth
- Growth/no growth ([7]; Sample Concentration 0.156%): Growth
- Growth/no growth ([7]; Sample Concentration 0.313%): Growth
- MIC ([8]; Example 35): 0.625%
- Growth/no growth ([8]; Sample Concentration 0.039%): Growth
- Growth/no growth ([8]; Sample Concentration 0.078%): Growth
- Growth/no growth ([8]; Sample Concentration 0.156%): Growth
- Growth/no growth ([8]; Sample Concentration 0.313%): Growth

Structure (SMILES): CCCCCCCCCCCCOC(=O)C(C)NC.Cl (centres unmarked) [Nex-59, Dodecyl 2-(methylamino)propanoate hydrochloride]
- MIC ([1]; Acinetobacter, ATCC15309, Table 19 summary, read-out: MIC): 200 µg/mL
- MIC ([1]; Example 35): 0.02%
- Growth/no growth ([1]; Sample Concentration 0.01%): Growth
- MIC ([2]; Corynebacterium jeikeium, ATCC43734, Table 19 summary, read-out: MIC): ≥ 100 µg/mL
- MIC ([2]; Example 35): ≦0.01%
- Growth/no growth ([2]; Sample Concentration 0.01%): No
- Growth/no growth ([2]; Sample Concentration 0.02%): No
- Growth/no growth ([2]; Sample Concentration 0.04%): No
- Growth/no growth ([2]; Sample Concentration 0.08%): No
- Growth/no growth ([2]; Sample Concentration 0.16%): No
- Growth/no growth ([2]; Sample Concentration 0.32%): No
- Growth/no growth ([2]; Sample Concentration 0.63%): No
- Growth/no growth ([2]; Sample Concentration 1.25%): No
- Growth/no growth ([2]; Sample Concentration 2.5%): No
- MIC ([3]; Example 35): 0.16%
- MIC ([3]; Klebsiella aerogenes, ATCC13048, Table 19 summary, read-out: MIC): 1600 µg/mL
- Growth/no growth ([3]; Sample Concentration 0.01%): Growth
- Growth/no growth ([3]; Sample Concentration 0.02%): Growth
- Growth/no growth ([3]; Sample Concentration 0.04%): Growth
- Growth/no growth ([3]; Sample Concentration 0.08%): Growth
- Growth/no growth ([3]; Sample Concentration 0.16%): No
- Growth/no growth ([3]; Sample Concentration 0.32%): No
- Growth/no growth ([3]; Sample Concentration 0.63%): No
- Growth/no growth ([3]; Sample Concentration 1.25%): No
- Growth/no growth ([3]; Sample Concentration 2.5%): No
- MIC ([9]; Enterococcus faecium, ATCC19434, Table 19 summary, read-out: MIC): 400 µg/mL
- MIC ([9]; Example 35): 0.04%
- Growth/no growth ([9]; Sample Concentration 0.01%): Growth
- Growth/no growth ([9]; Sample Concentration 0.02%): Growth
- MIC ([4]; Example 35): 0.02%
- MIC ([4]; Micrococcus luteus, ATCC4698, Table 19 summary, read-out: MIC): 200 µg/mL
- Growth/no growth ([4]; Sample Concentration 0.01%): Growth
- Growth/no growth ([4]; Sample Concentration 0.02%): No
- Growth/no growth ([4]; Sample Concentration 0.04%): No
- Growth/no growth ([4]; Sample Concentration 0.08%): No
- Growth/no growth ([4]; Sample Concentration 0.16%): No
- Growth/no growth ([4]; Sample Concentration 0.32%): No
- Growth/no growth ([4]; Sample Concentration 0.63%): No
- Growth/no growth ([4]; Sample Concentration 1.25%): No
- Growth/no growth ([4]; Sample Concentration 2.5%): No
- MIC ([5]; Example 35): 0.16%
- MIC ([5]; Pseudomonas aeruginosa, ATCC9027, Table 19 summary, read-out: MIC): 1600 µg/mL
- Growth/no growth ([5]; Sample Concentration 0.01%): Growth
- Growth/no growth ([5]; Sample Concentration 0.02%): Growth
- Growth/no growth ([5]; Sample Concentration 0.04%): Growth
- Growth/no growth ([5]; Sample Concentration 0.08%): Growth
- MIC ([6]; Example 35): >2.5%
- Growth/no growth ([6]; Sample Concentration 0.01%): Growth
- Growth/no growth ([6]; Sample Concentration 0.02%): Growth
- Growth/no growth ([6]; Sample Concentration 0.04%): Growth
- Growth/no growth ([6]; Sample Concentration 0.08%): Growth
- Growth/no growth ([6]; Sample Concentration 0.16%): Growth
- Growth/no growth ([6]; Sample Concentration 0.32%): Growth
- Growth/no growth ([6]; Sample Concentration 0.63%): Growth
- Growth/no growth ([6]; Sample Concentration 1.25%): Growth
- Growth/no growth ([6]; Sample Concentration 2.5%): Growth
- MIC ([6]; Serratia marcescens, ATCC14756, Table 19 summary, read-out: MIC): > 25000 µg/mL
- MIC ([7]; Example 35): 0.02%
- Growth/no growth ([7]; Sample Concentration 0.01%): Growth
- Growth/no growth ([7]; Sample Concentration 0.02%): No
- Growth/no growth ([7]; Sample Concentration 0.04%): No
- Growth/no growth ([7]; Sample Concentration 0.08%): No
- Growth/no growth ([7]; Sample Concentration 0.16%): No
- Growth/no growth ([7]; Sample Concentration 0.32%): No
- Growth/no growth ([7]; Sample Concentration 0.63%): No
- Growth/no growth ([7]; Sample Concentration 1.25%): No
- Growth/no growth ([7]; Sample Concentration 2.5%): No
- MIC ([7]; Staphylococcus aureus, Table 19 summary, read-out: MIC): 200 µg/mL
- MIC ([8]; Example 35): 0.02%
- Growth/no growth ([8]; Sample Concentration 0.01%): Growth
- Growth/no growth ([8]; Sample Concentration 0.02%): No
- Growth/no growth ([8]; Sample Concentration 0.04%): No
- Growth/no growth ([8]; Sample Concentration 0.08%): No
- Growth/no growth ([8]; Sample Concentration 0.16%): No
- Growth/no growth ([8]; Sample Concentration 0.32%): No
- Growth/no growth ([8]; Sample Concentration 0.63%): No
- Growth/no growth ([8]; Sample Concentration 1.25%): No
- Growth/no growth ([8]; Sample Concentration 2.5%): No
- MIC ([8]; Staphylococcus hominis, ATCC27844, Table 19 summary, read-out: MIC): 200 µg/mL
